Measurements published in patent US20230390223A1, “ADMINISTRATION OF […] COMPOSITIONS FOR TREATING NERVOUS SYSTEM DISORDERS” (PaxMedica, Inc., priority 2020, published 2023).
Where “and” joins values, the source holds several entries; their conditions need not be identical. Equal entries are not always repeated. Where two headings read alike, the source gives them in different places.

Legend:
[1] = test system: B6.129P2-Fmr1tm1Cgr/J transgenic (TG) mice; assay: Light/dark preference test (LDT), anxiety-like behavior, SmartCage; type: in vivo
Text: The light/dark preference test (LDT) is one of the most widely used tests in pharmacology to measure unconditioned anxiety-like behavior in mice. The test is based on the natural aversion of mice to brightly illuminated areas and on their spontaneous exploratory behavior in response to a novel environment and light. See, Takao, K., et al., Light/dark Transition Test for Mice. J. Vis. Exp. (1), e104, doi:10.3791/104 (2006).
This study used a SmartCage™ system, which is an automated non-invasive rodent behavioral monitoring system which enables biomedical researchers to conduct a variety of neurobehavioral assays through consistent and accurate monitoring of rodent home cage activity and behavior. See, Xie X. S. et al. (2012) Rodent Behavioral Assessment in the Home Cage Using the SmartCage™™ System. In: Chen J., Xu X M., Xu Z., Zhang J. (eds) Animal Models of Acute Neurological Injuries II. Springer Protocols Handbooks. Humana Press, Totowa, NJ.
• 1. N=6 mice per group. • 2. All behavioral testing included a group of untreated wild type controls. • 3. Dosing for the various groups were as follows: • a. […] Group 2: IP saline, […], administered weekly to animals beginning at 9 weeks of age and continuing for four weeks (i.e. given at Age Weeks 9, 10, 11 and 12). • c. […] Behavioral tests for all groups (Groups 1-5) began the following day after the last day of IN dosing (Weeks 13-14 of age). • 2. Blood samples (PK testing) were collected from all mice at the end of 12 Weeks of age, just prior to starting the behavioral tests in Week 13. • 3. Brain tissue (for biochemistry testing) was harvested from all mice upon sacrifice at the conclusion of all behavioral testing at the end of 13-14 Weeks of age.
(§1) Male B6.129P2-Fmr1tm1Cgr/J TG mice were purchased from Jackson Laboratories, Bar Harbor, Maine. These mice were of approximately 8(±1) weeks of age. […] Mice accommodated to the research facility for the remainder of the week. Dosing began on the following Monday. Body weights of all mice were recorded for health monitoring purposes.
Dosing was carried out over the course of 28 days as instructed by the study sponsor. • 1. Prior to the beginning of the light/dark test, a dark box (red transparent enclosure with an opening for the mouse to enter) is placed in the SmartCage™. • 2. An individual mouse is placed in the open/non-dark box side (“Light Zone”), with its head facing away from the dark box. • 3. The mouse is then allowed to freely explore the SmartCage™ and enter the dark box “Dark Zone” at its own discretion over a 10-minute span. • 4. Anxiety-like behavior is assessed based on the SmartCage™ monitoring of time spent in the Light Zone, the number of Light Zone entries, and % Time Spent in the Light Zone. • 5. […] Wildtype Control data (collected separately prior to the beginning […] of the B6.129P2-Fmr1tm1Cgr/J TG mice) was added to the final data analysis to serve as a comparison for naive, male C57BL/6 mice.
No food or water is withheld and only natural stressors such as light are used. Four similarly calibrated SmartCages™ were used to record four mice simultaneously (example cage shown below). All Light/Dark tests were completed in one day.
Light/Dark Test Setup—Dark Box placed within the transparent homecage; homecage placed within the SmartCage™ monitoring system.

[2] = test system: mouse model of epilepsy; settings: cited from earlier work
[3] = test system: B6.129P2-Fmr1tm1Cgr/J transgenic (TG) mice; assay: Locomotor activity test, SmartCage ~24 h recording; type: in vivo; settings: for Active time: versus WT control group
[4] = test system: B6.129P2-Fmr1tm1Cgr/J transgenic (TG) mice; assay: Step through passive avoidance test (learning and memory); type: in vivo
Text: The Passive Avoidance task is useful for evaluating the effect of novel chemical entities on learning and memory as well as studying the mechanisms involved in rodent models of CNS disorders. In this test, the test chamber is divided into a lighted compartment and a dark compartment, with a gate between the two. The test animals explored both compartments on the first day. The next day, they are given a mild foot shock in the dark compartment and they will learn to associate the dark compartment with the foot shock. In order to test their learning and memory, the mice are then placed back in the lighted compartment. Passive avoidance behavior of rodents is defined as the suppression of their innate preference for the dark compartment. Mice with normal learning and memory will avoid entering the dark chamber. Learning and memory from the previous day is measured by recording the latency to cross through the gate between the two compartments. See, J. David Sweatt, Chapter 4: Rodent Behavioral Learning and Memory Models, Editor: J. David Sweatt. Mechanisms of Memory (Second Edition), Academic Press, 2010, Pages 76-103, ISBN 9780123749512.
This study used a SmartCage™ system, which is an automated non-invasive rodent behavioral monitoring system which enables biomedical researchers to conduct a variety of neurobehavioral assays through consistent and accurate monitoring of rodent home cage activity and behavior. See, Xie et al, 2012.
• 1. N=6 mice per group. • 2. All behavioral testing included a group of untreated wild type (WT) controls. • 3. Dosing for the various groups were as follows: • a. […] Group 2: IP saline, […], administered weekly to animals beginning at 9 weeks of age and continuing for four weeks (i.e. given at Age Weeks 9, 10, 11 and 12). • c. […] Behavioral tests for all groups (Groups 1-5) began the following day after the last day of IN dosing (Weeks 13-14 of age). • 2. Blood samples (for PK testing) were collected from all mice at the end of Week 12 of age, just prior to starting the behavioral tests in Week 13 of age. • 3. Brain tissue (for biochemistry testing) was harvested from all mice upon sacrifice at the conclusion of all behavioral testing at the end of Week 13-14 of age.
as §1, with “TG (TG)” for “TG”, “8 (±1)” for “8(±1)”
Dosing was carried out over the course of 28 days as instructed by the study Sponsor. […]

[5] = Determination of suramin in plasma and brain tissue after IP or IN administration; type: in vivo, mice; settings: for Kp: male, Fmr1-knockout B6.129P2-Fmr1tm1Cgr/J, mouse, brain/plasma, other: intranasal, 100 mg/mL, read-out: Average Brain Tissue to Plasma Partitioning Ratio
Text: For the study, male Fmr1-knockout B6.129P2-Fmr1tm1Cgr/J TG mice were purchased from Jackson Laboratories, Bar Harbor, Maine. These mice were of approximately 8 weeks of age. […] The absence of FMRP in these mice induces an over-activation of RAC1, a protein of the Rho GTPase subfamily that plays a critical role in dendritic morphology and synaptic function. These B6.129P2-Fmr1tm1Cgr/J TG mice, provide an animal model for cognitive disabilities and neurodevelopmental disorders.
Mice were accommodated to the research facility for approximately a week. Body weights of all mice were recorded for health monitoring purposes.
The remaining ingredients, except the cyclodextrin are added with mixing. The cyclodextrin is then added with mixing until dissolved. The resultant solution is allowed to sit for 2 hours before using.
Blood samples were collected from all mice at the end of 12 weeks of age. Brain tissue was harvested from all mice upon sacrifice 13-14 weeks of age. Standard sample preparation and analytical techniques were used to obtain the data.

[6] = 10-minute test, group regimens: A-804598 IP 30 mg/kg/day, tangeretin IP 10 mg/kg/day, emodin+piperine PO 20 mg/kg each twice per day
[7] = 5-minute test, suramin IP 20 mg/kg weekly for four weeks
[8] = suramin IP 20 mg/kg weekly for four weeks
[9] = 10-minute test, suramin IN weekly (100 mg/mL, one spray per nostril, 4 weeks)

Structure (SMILES): C[C@H](N/C(=N/C#N)Nc1cccc2ncccc12)c1ccccc1 [Formulation A-804598, N-Cyano-N″-[(1S)-1-phenylethyl]-N′-5-quinolinyl-guanidine]
- number of Light Zone entries ([1]; 10-minute test, each group at its regimen, compared to WT mice): significantly lower number of light zone entries

Structure (SMILES): O=C(NCC1(N2CCN(c3ccccc3)CC2)CCOCC1)c1cccnc1Sc1ccccc1 [JNJ-47965567, 2-(Phenylthio)-N-[[tetrahydro-4-(4-phenyl-1-piperazinyl)-2H-pyran-4-yl]methyl]-3-pyridinecarboxamide]
- effect on epileptic seizures [2]: suppress epileptic seizures

Structure (SMILES): COc1ccc(-c2cc(=O)c3c(OC)c(OC)c(OC)c(OC)c3o2)cc1 [Tangeretin, 5,6,7,8-tetramethoxy-2-(4-methoxyphenyl)-4H-1-benzopyran-4-one]
- Active time ([3]; A-804598 IP 30 mg/kg/day, tangeretin IP 10 mg/kg/day): greater activity compared to the WT control group
- total number of Dark Zone Entries ([4]; test day, tangeretin IP 10 mg/kg/day, emodin+piperine PO 20 mg/kg each twice per day, other groups at their regimens): one
- percentage of time spent in the Light Zone [1, 6]: higher percentage of time spent in the Light Zone
- total time spent in the light zone [1, 6]: ~6.5 min

Structure (SMILES): Cc1ccc(C(=O)Nc2ccc(S(=O)(=O)O)c3cc(S(=O)(=O)O)cc(S(=O)(=O)O)c23)cc1NC(=O)c1cccc(NC(=O)Nc2cccc(C(=O)Nc3cc(C(=O)Nc4ccc(S(=O)(=O)O)c5cc(S(=O)(=O)O)cc(S(=O)(=O)O)c45)ccc3C)c2)c1 [suramin, 1,3,5-Naphthalenetrisulfonic acid, 8,8′-[carbonylbis[imino-3,1-phenylenecarbonylimino(4-methyl-3,1-phenylene)carbonylimino]]bis-]
- Active time ([3]; all IN Suramin groups (Daily, Weekly, Every 2 Days)): greater activity compared to the WT control group
- Rearing count ([3]; suramin IN every 2 days, versus WT control): comparable to the WT control group
- Average Plasma Concentration ([5]; Group 1: IP 20 mg/kg weekly for four weeks, blood at end of 12 weeks of age, 20 mg/kg): 18733 ng/ml and 14.440 μM
- Average Plasma Concentration ([5]; Group 3: IN formulation 100 mg/mL, one spray per nostril, one time per day for 28 days): 1637 ng/ml and 1.262 μM
- Average Plasma Concentration ([5]; Group 4: IN formulation 100 mg/mL, one spray per nostril, every other day for 28 days): 1578 ng/ml and 1.217 μM
- Average Plasma Concentration ([5]; Group 5: IN formulation 100 mg/mL, one spray per nostril, one time every week for 4 weeks): 278.7 ng/ml and 0.215 μM
- Kp ([5]; one spray per nostril, Group 3: IN formulation 100 mg/mL, one spray per nostril, one time per day for 28 days): 0.069
- Kp ([5]; one spray per nostril, Group 4: IN formulation 100 mg/mL, one spray per nostril, every other day for 28 days): 0.089
- Kp ([5]; one spray per nostril, Group 5: IN formulation 100 mg/mL, one spray per nostril, one time every week for 4 weeks): 0.235
- percentage of time spent in the light zone on the test day [4, 7]: approximately 50%
- total light zone time on the test day [4, 7]: lower total time
- Dark Zone entry latency, Test Day (24 h post-foot shock) [4, 8]: shortest latency for entering the dark compartment
- percentage of time spent in the Light Zone [1, 9]: higher percentage of time spent in the Light Zone
- total time spent in the light zone [1, 9]: ~6.5 min
- Dark Zone entry latency ([1]; all IN suramin groups (daily, every other day, weekly; 100 mg/mL, one spray per nostril, 28 days)): 60 to 65 s
- Dark Zone entry latency [1, 8]: 30 to 40 s
